# Laboratory results published in patent publication US12594282B2, “Use of small molecule compounds in the treatment of diseases mediated by lung epithelial cell injury and/or vascular endothelial cell injury” (Guangzhou Cellprotek Pharmaceutical Co., Ltd., priority 2020, dated 2026).
# Assays:
# [1] = tested on: LPS-induced acute lung injury; experiment: LPS-induced acute lung injury in rats (HE pathology, Smith score); type: in vivo, rat; conditions: for lung injury pathological score vs LPS model group: tail vein every 6 h x4, 24 h after LPS 6.4 mg/kg
# Method: Animal grouping: 60 qualified rats with uniform body weight were selected and included in the experiment, and were randomly divided into 6 groups according to body weight, 10 rats/group. The animal grouping and the drug treatment dose of each group were as follows:
# Drug administration: Test drugs were administered by tail vein at 0.3 mL/100 g body weight, hydrocortisone (25 mg/kg) was administered intraperitoneally at 0.5 mL/100 g body weight; the first administration for all the test agents were performed 0.5 h before LPS administration in the model. The test drug solvent and YC-6 were intravenously injected once every 6 h for a total of 4 injections, and the hydrocortisone (HC) group was intraperitoneally injected once every 12 h for a total of 2 injections.
# After the rats were weighed and anesthetized by isoflurane, they were fixed in a supine position. The hair in the skin of the neck was removed, the skin of the neck was sterilized with 75% ethanol, and incised in the middle, after which the subcutaneous tissue was bluntly separated, and the upper trachea was exposed. 8 mg/mL LPS solution was injected into the trachea with a syringe, 0.2 mL/rat, and each rat was calculated as having body weight of […], and the dose was 6.4 mg/kg. Immediately after injection, the rats were erected, shaken, and rotated to distribute the LPS solution evenly in the lungs. The skin was sutured and disinfected with iodophor.
# 24 h after LPS injection, the animals were anesthetized by intraperitoneal injection of 20% […] solution at a volume of 6 mL/kg body weight. After the abdominal aorta was bled till the animal was dead, the thoracic cavity was exposed, and the lung tissue was collected. The left lung was fixed in 10% paraformaldehyde solution for 48 hours, after which the coronal plane of the left lung was cross-sectioned into two equal-width upper and lower parts, and then the lower half of the left lung was cross-sectioned into two equal-width parts according to the coronal plane. The sagittal plane of the upper half of the left lung and the coronal plane of the two lower half of the left lung were embedded in a paraffin block, sectioned and stained with hematoxylin-eosin (HE).
# Tissue dehydration and paraffin embedding: The tissue was taken out of the fixative and successively immersed in 50% ethanol (30 min)-70% ethanol (overnight)-80% ethanol (30 min)-90% ethanol (30 min)-95% ethanol (30 min)-absolute ethanol (2 times, 30 min each time)-xylene (2 times, 5˜10 min each time, until the sample was completely transparent)-62° C. paraffin (3 times, 1 hour each time), followed by tissue embedding. Tissue paraffin sectioning: The thickness was 3 μm, the sections were dried on a microtome, and then placed in a 37° C. oven to dry overnight, and then used for HE staining. […]
# NR4A3 = NR4A3 protein expression under OGD-R, HUVEC (Western blot, immunofluorescence); type: cell-based, human; conditions: OGD 4 hours, restoration 24 hours, 1, 3, 10 μM given at restoration
# Method: HUVEC cells were cultured in modified DMEM medium containing 10% fetal bovine serum. When the cells reached about 80% confluence, the cells were digested with 0.25% trypsin, and then pipetted evenly with modified DMEM containing 10% […]. The cell concentration was adjusted to 1×10^5 cells/mL, and the cells were seeded at 400 uL/well in a 24-well plate, and the experiment was carried out when the cells grew to about 70% confluence. RAOEC cells were cultured in high-glucose DMEM medium containing 10% fetal bovine serum, and the seeding conditions were the same as those of HUVEC. During the OGD-R injury treatment, the hypoxia workstation was set to have an oxygen concentration of 1% (1% O2, 5% CO2, 94% N2), a temperature of 37° C., and a humidity of 85%. A sugar-free DMEM medium was placed in the hypoxia workstation for pre-hypoxia for 3 hours. The medium in the culture plate was aspirated, and the plate was washed twice with preheated sugar-free DMEM medium, and 100 uL of sugar-free DMEM medium was added to each well. The culture plate was placed in the hypoxia workstation, and 300 uL of pre-hypoxic sugar-free DMEM medium was added to each well, and then the culture plate was placed in the hypoxia workstation for additional hypoxia for 4 hours. Restoration was then performed. The culture plate was taken out, and the sugar-free DMEM medium was replaced with 400 uL of normal medium containing 10% fetal bovine serum, and then the plate was placed in a 37° C. 5% CO2 cell incubator for culturing for 24 hours or a specified time period. For the cells in the normal group, it was only replaced with 400 uL of new normal medium containing 10% fetal bovine serum. […]
# The cells were washed twice with pre-cooled PBS, then scraped off with a cell scraper and transferred to a 1.5 mL centrifuge tube, and centrifugation was performed at 4° C. and 1000 g for 5 minutes. […] Each protein sample was then quantified using the BCA protein quantification kit. After protein quantification, protein lysis buffer was used to adjust the protein concentration of each sample to be consistent with the protein sample with the lowest concentration, and then each protein sample was sufficiently mixed with 5× protein loading buffer at a ratio of 4:1. […]
# [2] = 12, 40, 120 mg/kg/d, HE staining
structure (smiles),measurement,setting,value
"C[C@@]12CCCC1C1C[C@@H](O)[C@]3(O)C[C@@H](O)CC[C@]3(C)C1CC2 (stereo partly drawn) [YC-6, 5α-androst-3β,5,6β-triol]",lung injury pathological score vs LPS model group,[1]; 12 mg/kg/d,significantly lower pathological scores
same,lung injury pathological score vs LPS model group,[1]; 40 mg/kg/d,significantly lower pathological scores
same,lung injury pathological score vs LPS model group,[1]; 120 mg/kg/d,significantly lower pathological scores
same,alveolar damage vs LPS model group,[1]; [2],reduced alveolar damage
same,inflammatory cell infiltration in lung tissue vs LPS model group,[1]; [2],reduced inflammatory cell infiltration
same,protective effect (pathological score) compared with 50 mg/kg/d hydrocortisone,"[1]; low-dose group (12 mg/kg/d), P<0.05",significantly better protective effect
same,NR4A3 protein expression,NR4A3,dose-dependently increase the protein expression of NR4A3
